Laboratory results taken from patent US7446095B2, “Peptides modulating caspase activation” (priority 2002, dated 2008).
“Also recorded” adds a separate entry of the source. Bridges are numbered along the chain shown (N, C = ends). Where no end group is shown, it is not given here.

B1: AFP: Human alpha-fetoprotein isolated from the cord serum, purity not less than 99.8% (protein, UniProt P02771 19-609, looked up)
Alpha-fetoprotein: RTLHRNEYGIASILDSYQCTAEISLADLATIFFAQFVQEATYKEVSKMVKDALTAIEKPTGDEQSSGCLENQLPAFLEELCHEKEILEKYGHSDCCSQSEEGRHNCFLAHKKPTPASIPLFQVPEPVTSCEAYEEDRETFMNKFIYEIARRHPFLYAPTILLWAARYDKIIPSCCKAENAVECFQTKAATVTKELRESSLLNQHACAVMKNFGTRTFQAITVTKLSQKFTKVNFTEIQKLVLDVAHVHEHCCRGDVLDCLQDGEKIMSYICSQQDTLSNKITECCKLTTLERGQCIIHAENDEKPEGLSPNLNRFLGDRDFNQFSSGEKNIFLASFVHEYSRRHPQLAVSVILRVAKGYQELLEKCFQTENPLECQDKGEEELQKYIQESQALAKRSCGLFQKLGEYYLQNAFLVAYTKKAPQLTSSELMAITRKMAATAATCCQLSEDKLLACGEGAADIIIGHLCIRHEMTPVNPGVGQCCTSSYANRRPCFSSLVVDETYVPPAFSDDKFIFHKDLCQAQGVALQTMKQEFLINLVKQKPQITEEQLEAVIADFSGLLEKCCQGQEQEVCFAEEGQKLISKTRAALGV

Legend:
U-937 cells [1] = experiment: Modulation of AFP-induced apoptosis / growth suppression in U-937 cells ([3H]-thymidine incorporation); assay type: cell-based, human; details: for Effect on AFP-induced apoptosis in whole cells (in words): 15 min peptide pre-treatment, then 3 μM AFP, 24 h
Description: Cell proliferation was assessed by [^3H]-thymidine incorporation assay after 24 h of incubation.
The cells were treated for […] with various doses of the peptides and thereafter 3 μM pure human AFP was added to each well. Cell proliferation was assessed by the [^3H]-thymidine incorporation assay after 24 h of incubation.
The cells were treated for 15 min with various doses of the peptide and thereafter 3 μM pure human AFP was added to each well. Cell proliferation was assessed by the [^3H]-thymidine incorporation assay after 24 h of incubation.
U937 cells were plated out at a density of 4×10^3 cells/well in flat-bottom 96-well plates (Costar) in the complete medium and incubated for 2 h before reagent additions. Then cells were treated for 24 h with various doses of AFP dissolved in PBS and then assessed for proliferation. Cell treatment with cytotoxic IgM anti-Fas antibody CH-11 was performed as described. U937 cells were treated with 50 ng/ml of CH-11 antibodies for 18 h. Cells were left untreated or were treated with reagents for adequate time intervals and for the last 4 h of culture were subjected to their [^3H]-thymidine (1 Ci/mmol/well) incorporation. Experimental data were expressed as a percentage of [^3H]-thymidine incorporation in triplicate cultures relative to the medium control. Cells, cultivated without additions, were taken as a control.
(§1) To assess growth regulative activity of peptides various doses of peptides were added to the cells for 24 h and then the cells were assessed for proliferation, cell viability and DNA-fragmentation. To determine ability of peptides to modulate apoptosis induced by other factors Jurkat cells were treated with 20 ng/ml of CH-11 antibodies without ActD, Raji cells were treated with CH-11 in the presence of 0.5 μg/ml of ActD for 18 h. For induction of apoptosis with TNF-α, cells (Jurkat, MCF7 or U937) were treated for 24 h with 25 ng/ml of the cytokine and then were assessed for proliferation or viability as described above. HepG2 cells were pre-washed before TNF addition with fresh medium to remove endogenous growth factors.

[2] = tested on: caspase-3 activation (DEVDase activity); experiment: Cyt c/AFP-mediated caspase-3 activation in cell-free cytosolic extracts of HepG2 cells; assay type: biochemical, human; details: for Ability to affect AFP-induced Cyt c-dependent caspase activation: DEVDase activity, numbers are % abrogation; for Effect on Cyt c/AFP-mediated caspase-3 activation (in words): cell-free HepG2 cytosolic extracts, 1 mM dATP
Description: Caspase activation was monitored by the cleavage of specific caspase-3 fluorogenic substrate DEVD-AMC.
(§2) HepG2, human hepatocarcinoma cells and human monoblastoma cell line U937 originated from American Type Culture Collection. Cell extracts were prepared by lysing cells in a hypotonic extraction buffer. To obtain the cytosolic S-100 fraction, the cell lysate was centrifuged for 1 h at 100,000×g. Extracts were either used immediately or frozen at −70° C. for later use.
(§3) Cell-free reactions were typically set up in 13-μl reaction volumes. Apoptosis was induced by addition of various doses of bovine heart cytochrom c and/or purified human AFP in the presence of 1 mM dATP. For 13-μl scale reactions, 10 μl of cell extract (˜2-4 mg/ml, as determined by the Bradford assay) were supplemented with 1 μl of dATP, 1 μl of Cyt c and/or AFP solutions in reaction buffer to receive necessary final concentration of reagents. To assess activity of peptides, various doses of peptides being dissolved in the reaction buffer together with 1 mM dATP were added to the cell extracts. To determine ability of the peptides to modulate apoptotic effects of Cyt c and AFP, peptides were added to extracts 10 min before cytochrome c or AFP. Control samples were incubated with the equal volume of the buffer (3 μl) without reagent addition. To initiate apoptosis, extracts were incubated at 37° C. for 40 min.
(§4) At the end of a caspase activation reaction, extract aliquots (5 μl) were supplemented with fluorogenic substrate DEVD-AMC (3 mM) and then incubated for definite time intervals (0.5-1 h) at 37° C. Reactions were terminated by dilution with addition of 2.0 ml of ice-cold 0.2 mM sodium phosphate buffer, pH 7.5, followed by a measurement of fluorescence with a Perkin Elmer MPF-44A (λexc=365 nm and λem=440 nm ) fluorometer. For each sample, the fluorescence intensity was normalized in the respect of cytosolic protein concentration. Caspase activation was presented as the ratio between the normalized fluorescence intensity of the sample and the corresponding value measured with a control sample.

U-937 cells [3] = experiment: Direct effect of peptides on U-937 cell proliferation ([3H]-thymidine incorporation); assay type: cell-based, human; details: peptides in dose 1 mM; U-937 cell proliferation vs control without additions
Description: Cells, cultivated without additions, were taken as a control.
as §1

[4] = tested on: caspase-3 activation (DEVDase activity); experiment: dATP-dependent Cyt c-induced caspase-3 (DEVDase) activation in cell-free cytosolic extracts of HepG2 cells; assay type: biochemical, human; details: for Effect on high dose cytochrome c-mediated caspase activation (in words) / Effect on low dose cytochrome c-induced caspase activation (in words): cell-free extracts, 15 min pre-treatment; for Effect on high dose cytochrome c-mediated caspase activation (in words) / Effect on low dose cytochrome c-induced caspase activation (in words) / Effect on the high dose Cyt c-induced caspase activation: peptides 750 μM; for Effect on high dose cytochrome c-mediated caspase activation (in words): high dose (165 nM) cytochrome c; for Effect on low dose cytochrome c-induced caspase activation (in words): low dose (110 nM) cytochrome c; for Effect on the high dose Cyt c-induced caspase activation / Effect on the low dose Cyt c-induced caspase activation (stimulation, or result in words) / Effect on the low dose Cyt c-induced caspase activation (abrogation): DEVDase activity; for Effect on the high dose Cyt c-induced caspase activation / Effect on the low dose Cyt c-induced caspase activation (abrogation): numbers are % abrogation; for Effect on the low dose Cyt c-induced caspase activation (stimulation, or result in words): numbers are % stimulation
Description: Peptides in the concentration of 750 μM were added to the cell extracts 15 min before the cytochrome c addition. Caspase activation was monitored by the cleavage of caspase-3-specific fluorogenic substrate DEVD-AMC.
as §2, §3, §4
To test ability of various peptides to affect caspase activation induced by exogenous cytochrome c in cell free system, we used cytosolic cell extracts of HepG2 cells. Aliquots of cell extracts were pre-treated with 750 μM of peptides for 15 min and thereafter various doses of cytochrome c was introduced in the reaction mixture to induce caspase activation.

[5] = tested on: caspase-3 activation (DEVDase activity); details: cell-free system, no dATP
Description: as §2
Cell-free reactions were typically set up in 13-μl reaction volumes. Apoptosis was induced by addition of various doses of bovine heart cytochrom c and/or purified human AFP in the presence of 1 mM dATP. For 13-μl scale reactions, 10 μl of cell extract (˜2-4 mg/ml, as determined by the Bradford assay) were supplemented with 1 μl of dATP, 1 μl of Cyt c and/or AFP solutions in reaction buffer to receive necessary final concentration of reagents. […]
as §4, with “Caspase activation was presented as the ratio between the normalized fluorescence intensity of the sample and the corresponding value measured with a control sample.” left out

U-937 cells [6] = tested on: U-937 cells
[7] = tested on: caspase-3 activation (DEVDase activity); experiment: dATP-dependent Cyt c-induced caspase-3 (DEVDase) activation in cell-free cytosolic extracts of HepG2 cells; assay type: biochemical, human

| Molecule | Effect on AFP-induced apoptosis in whole cells (in words) (U-937 cells [1]) | Ability to affect AFP-induced Cyt c-dependent caspase activation ([2]; cell-free system) | Effect on the cell growth (% of control) (U-937 cells [3]) | Effect on high dose cytochrome c-mediated caspase activation (in words) [4] | Effect on low dose cytochrome c-induced caspase activation (in words) [4] | Effect on the high dose Cyt c-induced caspase activation ([4]; cell-free system) | Effect on the low dose Cyt c-induced caspase activation (stimulation, or result in words) ([4]; cell-free system) | further results |
| --- | --- | --- | --- | --- | --- | --- | --- | --- |
| *Cys-Gly-Arg-Gly-Asp-Val-Leu-Asp-Cys* | failed to abrogate; also recorded: no activity | no effect | −12 % of control | no activity | no effect | no effect | no effect | – |
| RGDVLD [Linear 6-mer peptide from AFP] | did not revealed any apoptosis-regulating activity; also recorded: incapable of regulation | no effect | +10 % of control | significant inhibition | significant abrogation | 80% abrogation | – | Effect on AFP-induced apoptosis in whole cells (in words) (U-937 cells [1]; listed as p25): not in the whole cells; Effect on Cyt c/AFP-mediated caspase-3 activation (in words) [2]: able to abrogate; Effect on the low dose Cyt c-induced caspase activation (abrogation) ([4]; cell-free system): 30-50%; Retention of apocyclin-A's modulation of Cyt c-mediated caspase activation in a cell-free system (in words) ([4]; summary statement): partially retained this activity |
| *Cys-*Cys-Arg-Gly-Asp-Val-Leu-Asp-Cys* [apocyclin-A] | completely abrogates; also recorded: completely cancelled | 70-80% | +12 % of control | decreased; also recorded: significantly inhibited; also recorded: practically completely abrogated; also recorded: significant inhibition | significantly enhanced; also recorded: moderately supported; also recorded: notably enhanced; also recorded: same stimulation as full-length AFP molecule | 50-80% | 30% stimulation | Stimulation of proliferation relatively to the medium control (U-937 cells [1]; 15-min pre-treatment with 1 mM, 24-h cultivation): 15%; Induction of DEVD-ase activity without dATP addition (in words) [5]: unable to induce; Effect on Cyt c/AFP-mediated caspase-3 activation (in words) [2]: abrogates; also recorded: cancelled; Inhibition of Cyt c/AFP-mediated caspase activation ([2]; cell-free system, combined cytochrome c/AFP treatment): 60-80%; Inhibition of caspase activation induced by high doses of endogenous cytochrome c ([4]; peptide 750 μM, cell-free system): 50-70%; Abrogation of the total anti-Fas-mediated apoptosis effect (U-937 cells [6]; 0.5 mM peptide, U-937 cells, various doses of CH-11): about 50%; Inhibition of anti-Fas-induced apoptosis (in words) (U-937 cells [6]; peptide concentration up to 1 mM, U-937 cells): more significant inhibition; Inhibition of anti-Fas-mediated cell death (in words) (U-937 cells [6]; summary statement, concentration not given): significantly inhibits |
| *Cys-Gly-His-Gly-Asp-Leu-Leu-Glu-Cys* (CGHGDLLEC; disulfide 1-9 (inferred)) [Cyclic peptide from HSA, Cys substituted for Gly] | did not affect | – | – | – | – | – | – | – |
| *Cys-Cys-His-Gly-Asp-Leu-Leu-Glu-Cys* (CCHGDLLEC; disulfide 1-9) [Cyclic peptide from human serum albumin] | no activity | no effect | +18 % of control | no activity | no effect | no effect | no effect | – |
| HGDLLE [Linear peptide from HSA] | did not affect | no effect | +20 % of control | significant inhibition | significant abrogation | 90% abrogation | – | Effect on the low dose Cyt c-induced caspase activation (abrogation) ([4]; cell-free system): 70% abrogation |
| B1 | – | – | – | – | – | 80% abrogation | 50% stimulation | Caspase activation in 'silent' cytosolic extracts with low suboptimal dose of exogenous cyt-c and dATP (in words) ([7]; AFP 7 μM, time-dependent, up to two hours): triggered the process of caspase activation; Caspase activation in the absence of dATP (in words) ([7]; S100 cytosolic extract, no dATP): did not induce any caspase activation; Induction of caspase-3-specific DEVDase activity in S100 cytosolic extract (in words) ([7]; protein 7 μM with dATP 1 mM, no exogenous cyt-c, up to 2 h): triggered dATP-dependent induction |
